Assay results reported in patent US7166579B2, “Prodrugs of DP IV-inhibitors” (Prosidion Limited, priority 1998, dated 2007).
Structures can show the parent of a compound that is named as a salt. Residues, ends and D or L forms follow the SMILES beside them.

Experiments:
[1] = target: T1, human peptide transporter PepT1 (Homo sapiens, UniProt P46059); experiment: Electrophysiological transport analysis, hPEPT1 expressed in oocytes; format: cell-based
T1 construct: expressed in transfected cells
T1 sequence (P46059 1-708): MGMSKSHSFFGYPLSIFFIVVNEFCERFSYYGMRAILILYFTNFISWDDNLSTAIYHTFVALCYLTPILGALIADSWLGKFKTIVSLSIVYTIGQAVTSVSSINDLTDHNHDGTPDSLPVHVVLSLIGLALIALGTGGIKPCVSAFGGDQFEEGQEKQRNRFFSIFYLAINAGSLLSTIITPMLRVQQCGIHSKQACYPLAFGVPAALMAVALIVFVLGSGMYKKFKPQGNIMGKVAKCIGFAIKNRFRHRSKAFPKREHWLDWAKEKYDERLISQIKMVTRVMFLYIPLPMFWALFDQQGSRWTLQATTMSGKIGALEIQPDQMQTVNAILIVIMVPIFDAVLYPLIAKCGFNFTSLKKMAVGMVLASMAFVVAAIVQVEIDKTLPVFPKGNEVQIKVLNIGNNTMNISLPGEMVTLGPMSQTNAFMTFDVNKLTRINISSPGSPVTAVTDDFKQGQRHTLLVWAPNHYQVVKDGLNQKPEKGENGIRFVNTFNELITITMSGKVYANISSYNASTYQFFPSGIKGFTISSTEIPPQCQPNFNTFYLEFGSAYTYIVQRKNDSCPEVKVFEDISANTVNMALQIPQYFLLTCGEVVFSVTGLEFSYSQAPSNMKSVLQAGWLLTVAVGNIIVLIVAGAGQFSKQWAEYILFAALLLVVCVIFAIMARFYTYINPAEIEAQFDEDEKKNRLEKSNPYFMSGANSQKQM

[2] = target: T1, human peptide transporter PepT1; experiment: Affinity to PepT1 by displacement of radioactively labeled D-Phe-Ala; conditions: read-out: Binding constant, mM, to PepT1, relative to D-Phe-Ala
[3] = Blood glucose after oral glucose stimulation and oral administration (glucose tolerance); format: in vivo; conditions: Wistar rats; within 100 minutes of p.o. glucose stimulation; p.o. dose 2.5 um active substance/300 g of animal; control = 100
human blood-DP IV = target: T2, human blood-DP IV (Homo sapiens, UniProt P27487); experiment: Inhibition of DP IV in human whole blood by release of Ile-Thia from prodrugs; conditions: same concentration of prodrug, compared with Pro-Ile-Thia and Gly-Pro-Ile-Thia
T2 construct: from tissue; host or cells: human whole blood
Text: Release of the masked DP IV-inhibitor in the blood can be carried out, in the case of the examples selected, by DP IV itself (Pro-Pro-Ile-Thia=PPIThia, Gly-Pro-Ile-Thia=GPIThia) or by aminopeptidases (pGlu-Ile-Thia=pEIThia, Pro-Ile-Thia=PIThia) (FIG. 1).

T2 sequence (P27487 whole entry): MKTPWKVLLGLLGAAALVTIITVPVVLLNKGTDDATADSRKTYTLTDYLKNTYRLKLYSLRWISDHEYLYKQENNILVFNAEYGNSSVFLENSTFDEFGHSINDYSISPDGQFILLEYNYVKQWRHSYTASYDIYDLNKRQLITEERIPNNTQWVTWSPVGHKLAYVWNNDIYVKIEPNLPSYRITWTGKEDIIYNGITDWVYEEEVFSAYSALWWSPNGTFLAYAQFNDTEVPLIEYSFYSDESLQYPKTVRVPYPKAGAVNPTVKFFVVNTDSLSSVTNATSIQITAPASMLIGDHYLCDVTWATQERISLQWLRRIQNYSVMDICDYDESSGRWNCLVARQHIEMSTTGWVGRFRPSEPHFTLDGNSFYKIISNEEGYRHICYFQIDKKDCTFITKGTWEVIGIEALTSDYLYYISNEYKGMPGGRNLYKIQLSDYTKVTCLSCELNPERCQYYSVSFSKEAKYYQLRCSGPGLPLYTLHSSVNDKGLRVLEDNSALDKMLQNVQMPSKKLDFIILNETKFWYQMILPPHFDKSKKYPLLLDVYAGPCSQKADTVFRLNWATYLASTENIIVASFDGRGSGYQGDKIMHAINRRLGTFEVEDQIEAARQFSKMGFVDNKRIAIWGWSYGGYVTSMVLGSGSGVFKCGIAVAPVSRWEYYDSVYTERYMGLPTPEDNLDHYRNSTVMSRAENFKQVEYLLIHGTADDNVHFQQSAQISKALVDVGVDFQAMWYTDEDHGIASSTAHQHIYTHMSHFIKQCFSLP

Compound | Electrophys. transport analysis (hPEPT1 expr. in oocytes), flux % based on the Gly-Gln control (100%) [1] | Ki [2] | also measured
CC[C@H](C)[C@H](N)C(=O)N1CCC[C@H]1C(=O)N[C@H](C(=O)N1CCSC1)[C@@H](C)CC (as salt: HCl) [Ile-Pro-Ile-Thia] |  |  | melting point: 98 to 107 °C
NC(=O)CC(N)C(=O)N1CCCC1 (stereo not shown) [Asn-Pyr] | 30% | 3.01 mM | 
NC(Cc1c[nH]cn1)C(=O)N1CCCC1 (stereo not shown) [His-Pyr] | 7% | 5.34 mM | 
NCCCCC(N)C(=O)NC(Cc1ccccc1)C(=O)N1CCCC1C(=O)O (stereo not drawn) [Lys-Phe-Pro] (H-Lys-Phe-Pro-OH; configuration not given here) | 10% | 0.19 mM | 
NCCCCC(N)C(=O)NC(Cc1ccccc1)C(=O)O (stereo not shown) [Lys-phe] | 95% | 0.08 mM | 
H-Gly-Pro-Ile-Thia/HC1 |  |  | % glucose level [3]: 57.1%
H-Pro-Ile-Thia/HC1 |  |  | % glucose level [3]: 56.1%
Pro-Pro-Ile-Thia |  |  | Release of the DP IV-inhibitor isoleucyl thiazolidide from the prodrug in the blood (time course of DP IV inhibition) (human blood-DP IV): more marked delay in the release of active substance
pGlu-Ile-Thia |  |  | Release of the DP IV-inhibitor isoleucyl thiazolidide from the prodrug in the blood (time course of DP IV inhibition) (human blood-DP IV): more marked delay in the release of active substance

The next lines start with results.

Electrophys. transport analysis (hPEPT1 expr. in oocytes), flux % based on the Gly-Gln control (100%) [1] | Ki [2] | Compound | also measured
83% | 0.5 mM | NC(=O)CC(N)C(=O)N1CCSC1 (stereo not shown) [Asn-Thia] | 
44% | 0.61 mM | CC[C@H](C)[C@H](N)C(=O)N1CCC[C@H]1C(=O)N[C@H](C(=O)N1CCSC1)[C@@H](C)CC [Ile-Pro-Ile-Thia] | 
14% | 2.66 mM | CCC(C)C(N)C(=O)N1CCCC1 (stereo not shown) [Ile-Pyr] | 
25% | 0.98 mM | CCC(C)C(N)C(=O)N1CCSC1 (stereo not shown) [Ile-Thia, isoleucyl thiazolidide] | % glucose level [3]: 74.4%
